Source: patent publication US5919771A, “Urea and thiourea derivatives of glycopeptides” (Eli Lilly and Company, priority 1998, dated 1999)

Columns and labels:
Format in all cases: cell-based
[1] = tested on: Enterococcus faecium and faecalis (RESISTANT); settings: geometric mean of 4-6 isolates
Protocol: (§1) The antibacterial efficacy of the present compounds is illustrated by Table II. The minimal inhibitory concentrations (MICs) were determined using a standard broth micro-dilution assay.

[2] = tested on: Enterococcus faecium and faecalis (SENSITIVE); settings: geometric mean of 4-6 isolates
Protocol: as §1

[3] = tested on: Staphylococcus aureus 446; assay: MIC, standard broth micro-dilution assay, SA 446
Protocol: as §1

[4] = tested on: Staphylococcus aureus 489; assay: MIC, standard broth micro-dilution assay, SA 489
Protocol: as §1

[5] = tested on: Staphylococcus aureus 447; assay: MIC, standard broth micro-dilution assay, SA 447
Protocol: as §1

[6] = tested on: Staphylococcus haemolyticus 105; assay: MIC, standard broth micro-dilution assay, SH 105
Protocol: as §1

[7] = tested on: Staphylococcus haemolyticus 415; assay: MIC, standard broth micro-dilution assay, SH 415
Protocol: as §1

[8] = tested on: Staphylococcus epidermidis 270; assay: MIC, standard broth micro-dilution assay, SE 270
Protocol: as §1

[9] = tested on: Streptococcus pyogenes C203; assay: MIC, standard broth micro-dilution assay, SPY C203
Protocol: as §1

[10] = tested on: Streptococcus pneumoniae P1; assay: MIC, standard broth micro-dilution assay, SPN P1
Protocol: as §1

Structure (SMILES)	Minimal Inhibitory Concentration (MIC) RESISTANT [1]	Minimal Inhibitory Concentration (MIC) SENSITIVE [2]	Minimal Inhibitory Concentration (MIC) SA 446 [3]	Minimal Inhibitory Concentration (MIC) SA 489 [4]	Minimal Inhibitory Concentration (MIC) SA 447 [5]	Minimal Inhibitory Concentration (MIC) SH 105 [6]	Minimal Inhibitory Concentration (MIC) SH 415 [7]	Minimal Inhibitory Concentration (MIC) SE 270 [8]	Minimal Inhibitory Concentration (MIC) SPY C203 [9]	Minimal Inhibitory Concentration (MIC) SPN P1 [10]
CC(C)CC(C(=O)NC1C(=O)NC(CC(N)=O)C(=O)NC2C(=O)NC3C(=O)NC(C(=O)NC(C(=O)O)c4cc(O)cc(O)c4-c4cc3ccc4O)C(OC3CC(C)(N)C(O)C(C)O3)c3ccc(c(Cl)c3)Oc3cc2cc(c3OC2OC(CO)C(O)C(O)C2OC2CC(C)(NCc3ccc(Oc4ccccc4)cc3)C(O)C(C)O2)Oc2ccc(cc2Cl)C1O)N(C)C(=S)Nc1ccc(N(C)C)cc1 (stereo not shown) [Example 19, N^LEU -((p-(DIMETHYLAMINO)-PHENYL)THIOCARBAMOYL)-N^DISACC -(p-PHENOXYBENZYL)A82846B]	19	2.6	2	2	2	2	4	2	0.25	2
CC(C)CC(C(=O)NC1C(=O)NC(CC(N)=O)C(=O)NC2C(=O)NC3C(=O)NC(C(=O)NC(C(=O)O)c4cc(O)cc(O)c4-c4cc3ccc4O)C(OC3CC(C)(N)C(O)C(C)O3)c3ccc(c(Cl)c3)Oc3cc2cc(c3OC2OC(CO)C(O)C(O)C2OC2CC(C)(N)C(O)C(C)O2)Oc2ccc(cc2Cl)C1O)N(C)C(=S)Nc1cccc2ccccc12 (stereo not shown) [Example 5, N^LEU -(1-NAPHTHYLTHIOCARBAMOYL)A82846B]	> 128	9.5	8	> 64	8	64	> 64	32	0.5	1
CC(C)CC(C(=O)NC1C(=O)NC(CC(N)=O)C(=O)NC2C(=O)NC3C(=O)NC(C(=O)NC(C(=O)O)c4cc(O)cc(O)c4-c4cc3ccc4O)C(OC3CC(C)(N)C(O)C(C)O3)c3ccc(c(Cl)c3)Oc3cc2cc(c3OC2OC(CO)C(O)C(O)C2OC2CC(C)(N)C(O)C(C)O2)Oc2ccc(cc2Cl)C1O)N(C)C(=S)Nc1ccccc1 (stereo not shown) [Example 1, N^LEU -(PHENYLTHIOCARBAMOYL)A82846B]	> 128	16	8	4	8	64	> 64	8	2	2
CC(C)CC(C(=O)NC1C(=O)NC(CC(N)=O)C(=O)NC2C(=O)NC3C(=O)NC(C(=O)NC(C(=O)O)c4cc(O)cc(O)c4-c4cc3ccc4O)C(OC3CC(C)(N)C(O)C(C)O3)c3ccc(c(Cl)c3)Oc3cc2cc(c3OC2OC(CO)C(O)C(O)C2OC2CC(C)(NCc3ccc(-c4ccc(Cl)cc4)cc3)C(O)C(C)O2)Oc2ccc(cc2Cl)C1O)N(C)C(=S)Nc1ccccc1 (stereo not shown) [Example 22, N^LEU -(PHENYLTHIOCARBAMOYL)-N^DISACC -(p-(p-CHLOROPHENYL)-BENZYL)A82846B]	6.7	2.6	2	1	1	1	2	0.5	≤ .06	≤ .06
CC(C)CC(C(=O)NC1C(=O)NC(CC(N)=O)C(=O)NC2C(=O)NC3C(=O)NC(C(=O)NC(C(=O)O)c4cc(O)cc(O)c4-c4cc3ccc4O)C(OC3CC(C)(N)C(O)C(C)O3)c3ccc(c(Cl)c3)Oc3cc2cc(c3OC2OC(CO)C(O)C(O)C2OC2CC(C)(N)C(O)C(C)O2)Oc2ccc(cc2Cl)C1O)N(C)C(=S)Nc1ccc([N+](=O)[O-])cc1 (stereo not shown) [Example 14, N^LEU -((p-NITROPHENYL)-THIOCARBAMOYL)A82846B]	> 128	3.5	2	2	4	16	32	4	≤ 0.06	0.25
COc1ccc(NC(=S)N(C)C(CC(C)C)C(=O)NC2C(=O)NC(CC(N)=O)C(=O)NC3C(=O)NC4C(=O)NC(C(=O)NC(C(=O)O)c5cc(O)cc(O)c5-c5cc4ccc5O)C(OC4CC(C)(N)C(O)C(C)O4)c4ccc(c(Cl)c4)Oc4cc3cc(c4OC3OC(CO)C(O)C(O)C3OC3CC(C)(NCc4ccc(Cl)cc4)C(O)C(C)O3)Oc3ccc(cc3Cl)C2O)cc1 (stereo not shown) [Example 13, N^LEU -((p-METHOXYPHENYL)-THIOCARBAMOYL)-N^DISACC -(p-CHLOROBENZYL)A82846B]	> 128	3.5	4	2	2	4	8	2	≤ 0.06	≤ 0.06
CCCCc1ccc(NC(=S)N(C)C(CC(C)C)C(=O)NC2C(=O)NC(CC(N)=O)C(=O)NC3C(=O)NC4C(=O)NC(C(=O)NC(C(=O)O)c5cc(O)cc(O)c5-c5cc4ccc5O)C(OC4CC(C)(N)C(O)C(C)O4)c4ccc(c(Cl)c4)Oc4cc3cc(c4OC3OC(CO)C(O)C(O)C3OC3CC(C)(N)C(O)C(C)O3)Oc3ccc(cc3Cl)C2O)cc1 (stereo not shown) [Example 17, N^LEU -((p-n-BUTYLPHENYL)-THIOCARBAMOYL)A82846B]	> 128	6.1	2	1	1	4	32	2	0.25	≤ 0.06
CC(C)C[C@H](C(=O)N[C@H]1C(=O)N[C@@H](CC(N)=O)C(=O)N[C@H]2C(=O)N[C@H]3C(=O)N[C@H](C(=O)N[C@H](C(=O)O)c4cc(O)cc(O)c4-c4cc3ccc4O)[C@H](O[C@H]3C[C@](C)(N)[C@@H](O)[C@H](C)O3)c3ccc(c(Cl)c3)Oc3cc2cc(c3O[C@@H]2O[C@H](CO)[C@@H](O)[C@H](O)[C@H]2O[C@H]2C[C@](C)(NCc3ccc(Cl)cc3)[C@@H](O)[C@H](C)O2)Oc2ccc(cc2Cl)[C@H]1O)N(C)C(=S)Nc1ccccc1 [Example 2, N^LEU -(PHENYLTHIOCARBAMOYL)-N^DISACC -(p-CHLOROBENZYL)A82846B]	128	3.4	2	2	2	8	16	4	0.125	0.25
CC(C)CC(C(=O)NC1C(=O)NC(CC(N)=O)C(=O)NC2C(=O)NC3C(=O)NC(C(=O)NC(C(=O)O)c4cc(O)cc(O)c4-c4cc3ccc4O)C(OC3CC(C)(N)C(O)C(C)O3)c3ccc(c(Cl)c3)Oc3cc2cc(c3OC2OC(CO)C(O)C(O)C2OC2CC(C)(N)C(O)C(C)O2)Oc2ccc(cc2Cl)C1O)N(C)C(=S)Nc1ccc(N(C)C)cc1 (stereo not shown) [Example 15, N^LEU -((p-(DIMETHYLAMINO)-PHENYL)THIOCARBAMOYL)A82846B]	> 128	24	8	4	16	> 64	> 64	16	0.25	0.25
CC(C)CC(C(=O)NC1C(=O)NC(CC(N)=O)C(=O)NC2C(=O)NC3C(=O)NC(C(=O)NC(C(=O)O)c4cc(O)cc(O)c4-c4cc3ccc4O)C(OC3CC(C)(N)C(O)C(C)O3)c3ccc(c(Cl)c3)Oc3cc2cc(c3OC2OC(CO)C(O)C(O)C2OC2CC(C)(NCc3ccc(Oc4ccccc4)cc3)C(O)C(C)O2)Oc2ccc(cc2Cl)C1O)N(C)C(=S)Nc1ccc(OCc2ccccc2)cc1 (stereo not shown) [Example 20, N^LEU -((p-(BENZYLOXY)PHENYL)-THIOCARBAMOYL)-N^DISACC -(p-PHENOXYBENZYL)A82846B]	9.5	5.6	4	2	2	2	2	1	≤ 0.06	4
